The text below walks through data of patent publication US20130324556A1, “Protease Activated Receptor 2 (PAR2) Antagonists” (priority 2011, published 2013).

Each structure is given as a SMILES string. Where a name gives a salt, the structure may show the parent alone.

The first assay addresses T1, human PAR2 receptor (Homo sapiens, UniProt P55085).
T1 construct: expressed in transfected cells; host or cells: 1321N1 cells
T1 sequence (P55085 26-397): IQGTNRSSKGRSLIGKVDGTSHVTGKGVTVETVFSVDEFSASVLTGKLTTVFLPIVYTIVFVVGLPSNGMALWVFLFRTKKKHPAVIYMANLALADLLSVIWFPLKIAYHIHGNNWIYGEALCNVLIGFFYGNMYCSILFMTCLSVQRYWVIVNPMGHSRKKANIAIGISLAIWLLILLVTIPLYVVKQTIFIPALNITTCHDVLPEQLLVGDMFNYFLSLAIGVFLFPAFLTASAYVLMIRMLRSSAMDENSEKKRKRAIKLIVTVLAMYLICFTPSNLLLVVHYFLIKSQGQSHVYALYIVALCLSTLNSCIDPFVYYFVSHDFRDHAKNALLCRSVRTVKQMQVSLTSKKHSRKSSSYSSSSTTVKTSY
The experiment in a line: PAR2 antagonist activity, calcium flux FLIPR assay (trypsin challenge).
Settings: not given
The format is cell-based. The protocol: The PAR2 receptor couples through the Gq signaling pathway and results in activation of calcium mobilization. The functional activity of test compounds was routinely tested by measuring the ability of compounds to antagonize PAR2 (trypsin challenge) activity in a dose dependent manner, in 1321N1 cells transfected with the human PAR2 receptor, using a calcium flux Fluorescent Imaging Plate Reader FLIPR assay.
Briefly, test compounds were dissolved in DMSO to a concentration of 20 mM and stored in matrix screenmate racks. […] The compounds were then transferred to 384-well assay plates ready for use. […] The assay buffer used was HBSS buffer supplemented with 20 mM HEPES and 0.1% BSA (protease free), pH7.4. The loading/wash buffers were the same as the assay buffer.
Sub-cultivations were performed every 2-3 d. […] After washing, the cells were loaded with Fluo-4 AM dye (Molecular probes) at 2 μM containing 0.48 μg/mL pluronic acid for 60 min at 37° C. under 5% CO2.
A combined agonist/antagonist protocol was used to measure changes in intracellular calcium concentration. Compound (antagonist) was added to the cell plate using a Fluorometric Imaging Plate Reader (FLIPR) (Molecular Devices, Sunnyvale, Calif., USA). Basal fluorescence was recorded every second for 10 seconds prior to compound addition (10 μl) and fluorescence recorded every second for 1 min then every 6 seconds for a further 1 min. Trypsin (EC50 concentration) was then added using the FLIPR and fluorescence recorded as described above. Curve-fitting and parameter estimation were carried out using GraphPad Prism 4.0 (GraphPad Software Inc., San Diego, Calif.).
Usually IC50 stands for the concentration that gives 50% inhibition. On to `NCc1ccc(CNC(=O)N2CCC(Nc3ccccc3Cl)CC2)cc1` [Example 17, N-{[4-(Aminomethyl)phen-yl]methyl}-4-[(2-chlorophenyl)amino]piper-idine-1-carboxamide dihydrochloride], for which the IC50 is below 5 µM.

The same assay, now with this note: 1321N1 cells transfected with the human PAR2 receptor; trypsin (EC50 concentration) challenge; calcium flux FLIPR; read-out: PAR2 IC50.
In the case of `NCc1ccc(CNC(=O)N2CCC(Cc3ccccc3)CC2)cc1` [Example 1, (4-{[(4-Benzylpiperidin-1-yl)carbonylamino]methyl}phenyl)methanaminium chloride], the IC50 is 5 to 20 µM.
The same measure, in the same setting: for `COc1cccc(CC2CCN(C(=O)NCc3ccc(CN)cc3)CC2)c1` [Example 2, 2,2,2-Trifluoroacetic acid; N-{[4-(aminomethyl)phenyl]methyl}-4-[(3-methoxyphenyl)methyl] piperidine-1-carboxamide] the value was 20 to 50 µM.
For `COc1ccc(CC2CCN(C(=O)NCc3ccc(CN)cc3)CC2)cc1` [Example 3, 2,2,2-Trifluoroacetic acid; N-{[4-(aminomethyl)phenyl]methyl}-4-[(4-methoxyphenyl)methyl] piperidine-1-carboxamide], the IC50 was below 5 µM.
Still for that read-out and setting: for `NCc1ccc(CNC(=O)N2CCC(Cc3cccc(F)c3)CC2)cc1` [Example 4, 2,2,2-Trifluoroacetic acid; N-{[4-(aminomethyl)phenyl]methyl}-4-[(3-fluorophenyl)methyl] piperidine-1-carboxamide] the value was below 5 µM; for `NCc1ccc(CNC(=O)N2CCC(Cc3ccc(F)cc3)CC2)cc1` [Example 5, N-{[4-(Aminomethyl)phen-yl]methyl}-4-[(4-fluorophenyl)methyl]piper-idine-1-carboxamide hydrochloride], below 5 µM.
Same read-out and setting: for `NCc1ccc(CNC(=O)N2CCC(Cc3ccc(Cl)cc3)CC2)cc1` [Example 6, 2,2,2-Trifluoroacetic acid; N-{[4-(aminomethyl)phenyl]methyl}-4-[(4-chlorophenyl)methyl] piperidine-1-carboxamide] the value was below 5 µM; for `Cc1ccc(CC2CCN(C(=O)NCc3ccc(CN)cc3)CC2)cc1` [Example 7, 2,2,2-Trifluoroacetic acid; N-{[4-(aminomethyl)phenyl]methyl}-4-[(4-methylphenyl)methyl] piperidine-1-carboxamide], 5 to 20 µM; for `NCc1ccc(CNC(=O)N2CCC(Cc3ccccn3)CC2)cc1` [Example 8, N-{[4-(Aminomethyl)phen-yl]methyl}-4-(pyridin-2-ylmethyl)piperidine-1-carboxamide], 5 to 20 µM.
Still for that read-out and setting: for `NCc1ccc(CNC(=O)N2CCC(Cc3cccnc3)CC2)cc1` [Example 9, N-{[4-(Aminomethyl)phen-yl]methyl}-4-(pyridin-3-ylmethyl)piperidine-1-carboxamide] the value was 20 to 50 µM.
On to `NCc1ccc(CNC(=O)N2CCC(Cc3ccncc3)CC2)cc1` [Example 10, N-{[4-(Aminomethyl)phen-yl]methyl}-4-(pyridin-4-ylmethyl)piperidine-1-carboxamide], for which the IC50 was 5 to 20 µM.
On the same count and under the same terms, for `NCc1ccc(CNC(=O)N2CCC(Oc3ccccc3)CC2)cc1` [Example 11, N-{[4-(Aminomethyl)phen-yl]methyl}-4-phenoxypiperidine-1-carboxamide] the value was 20 to 50 µM; for `NCc1ccc(CNC(=O)N2CCC(Oc3ccc(F)cc3)CC2)cc1` [Example 12, N-{[4-(Aminomethyl)phen-yl]methyl}-4-(4-fluorophenoxy)piperidine-1-carboxamide], 5 to 20 µM.
As to `NCc1ccc(CNC(=O)N2CCC(Oc3ccccc3Cl)CC2)cc1` [Example 13, N-{[4-(Aminomethyl)phen-yl]methyl}-4-(2-chlorophenoxy)piperidine-1-carboxamide hydrochloride], the IC50 was in the range of 20 to 50 µM.
`NCc1ccc(CNC(=O)N2CCC(Oc3cccc(Cl)c3)CC2)cc1` [Example 14, N-{[4-(Aminomethyl)phen-yl]methyl}-4-(3-chlorophenoxy)piperidine-1-carboxamide hydrochloride]: the IC50 was 20 to 50 µM.
Same read-out and setting: for `NCc1ccc(CNC(=O)N2CCC(Oc3ccc(Cl)cc3)CC2)cc1` [Example 15, N-{[4-(Aminomethyl)phen-yl]methyl}-4-(4-chlorophenoxy)piperidine-1-carboxamide hydrochloride] the value was 20 to 50 µM; for `NCc1ccc(CNC(=O)N2CCC(Sc3ccccc3)CC2)cc1` [Example 16, N-{[4-(Aminomethyl)phen-yl]methyl}-4-(phenylsulfanyl)piperidine-1-carboxamide hydrochloride], 5 to 20 µM.
The same measure, in the same setting: the same measure for `NCc1ccc(CNC(=O)N2CCC(C(=O)c3ccc(F)cc3)CC2)cc1` [Example 18, 2,2,2-Trifluoroacetic acid;- N-{[4-(aminomethyl)phenyl]methyl}-4-[(4-fluorophenyl)carbonyl] piperidine-1-carboxamide]: 5 to 20 µM; for `NCc1ccc(CNC(=O)N2CCC(C(O)c3ccc(F)cc3)CC2)cc1` (stereo not shown) [Example 19, N-{[4-(Aminomethyl)phen-yl]methyl}-4-[(4-fluorophenyl)(hydroxy)meth-yl] piperidine-1-carboxamide]: 5 to 20 µM.
On the same count and under the same terms, the same measure for `NCc1ccc(CNC(=O)N2CCC(c3ccccc3)CC2)cc1` [Example 20, N-{[4-(Aminomethyl)phen-yl]methyl}-4-phenylpiperidine-1-carboxamide hydrochloride]: 20 to 50 µM.
Take `NCc1ccc(CNC(=O)N2CCCC(Cc3ccccc3)C2)cc1` (stereo not shown) [Example 21, 2,2,2-Trifluoroacetic acid; N-{[4-(aminomethyl)phenyl]methyl}-3-benzylpiperidine-1-carboxamide]: the IC50 was 50 to 100 µM.
On the same count and under the same terms, the same measure for `NCc1ccc(CNC(=O)N2CCC(CCc3ccccc3)CC2)cc1` [Example 22, N-{[4-(Aminomethyl)phen-yl]methyl}-4-(2-phenylethyl)piperidine-1-carboxamide]: 20 to 50 µM.
On the same count and under the same terms, the same measure for `NCc1ccc(CNC(=O)C2CCN(Cc3cccc(F)c3)CC2)cc1` [Example 23, N-{[4-(Aminomethyl)phen-yl]methyl}-1-[(3-fluorophenyl)methyl]piper-idine-4-carboxamide]: 5 to 20 µM; for `NCc1ccc(CNC(=O)N2CCN(Cc3ccccc3)CC2)cc1` [Example 24, N-{[4-(Aminomethyl)phen-yl]methyl}-4-benzylpiperazine-1-carboxamide]: 5 to 20 µM.
As for `NCc1ccc(CNC(=O)N2CCN(Cc3ccccc3Cl)CC2)cc1` [Example 25, N-{[4-(Aminomethyl)phen-yl]methyl]-4-[(2-chlorophenyl)meth-yl]piperazine-1-carboxamide di-hydrochloride], the IC50 lay in the range of 5 to 20 µM.
`NCc1ccc(CNC(=O)N2CCN(C(=O)c3ccccc3)CC2)cc1` [Example 26, 2,2,2-Trifluoroacetic acid; N-{[4-(aminomethyl)phenyl]methyl}-4-benzoylpiperazine-1-carboxamide]: the IC50 lay within 20 to 50 µM.
Still for that read-out and setting: for `NCc1ccc(CNC(=O)N2CCN(c3ccccc3)CC2)cc1` [Example 27, N-{[4-(Aminomethyl)phen-yl]methyl}-4-phenyl piperazine-1-carboxamide dihydrochloride] the value was 20 to 50 µM.
On the same count and under the same terms, the same measure for `NCc1ccc(CNC(=O)N2CCC(Cc3ccccc3)C2)cc1` (stereo not shown) [Example 28, N-{[4-(Aminomethyl)phen-yl]methyl}-3-benzylpyrrolidine-1-carboxamide]: 20 to 50 µM.
